In article PMC12506092, “The MarR family transcription factor SlyA senses iron and respiratory status in enteric bacteria” (mBio, 2025):
pKd: −log10 of the molar value.

Legend:
SlyA [1] = biological target: T1, SlyA (Salmonella enterica, UniProt P40676); test: ITC with purified SlyA at […]°C; supported by 1H, […]-HSQC NMR; assay type: binding
SlyA [2] = biological target: T1, SlyA; test: ITC with purified SlyA; supported by NMR; assay type: binding

T1 sequence (P40676 whole entry): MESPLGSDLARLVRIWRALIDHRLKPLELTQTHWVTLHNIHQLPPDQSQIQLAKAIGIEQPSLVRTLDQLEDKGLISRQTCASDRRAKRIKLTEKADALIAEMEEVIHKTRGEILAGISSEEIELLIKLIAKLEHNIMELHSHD

Compound	pKd (SlyA [1])	pKd (SlyA [2])
O=C(O)c1cccc(O)c1O [2,3-dihydroxybenzoate]	~4.24	
O=C(O)c1ccccc1O [salicylate]		4.44
O=C(O)c1ccc(O)cc1 [4-hydroxybenzoate]	~4.00	
